{"source": "patent US9868731B2", "about": "“Indole amide compound as inhibitor of necrosis” (LG CHEM, LTD., priority 2013, dated 2018)"}
{"test_system": "primary hepatocytes isolated from rats", "test": "Hepatocyte protective effect against doxorubicin-induced hepatocyte toxicity (WST-1 viability)", "assay_type": "cell-based", "settings": "Hepatocyte; against doxorubicin treatment; primary rat hepatocytes pretreated with compound 30 min; viability by WST-1 after 24-48 hours; concentration giving 50% of maximum protective effect", "description": "(§1) Various endogenous/exogenous attacks on cells trigger the mechanisms of cell death which is broadly classified into two types—i.e., apoptosis or necrosis. Using these cell death mechanisms, in the present experimental example, primary hepatocytes isolated from rats were treated with drugs which were clinically shown to result in serious side-effects of hepatocyte toxicity or various chemicals which cause cell death, and the compounds synthesized in the Examples were estimated for their hepatocyte protective effects, after 24-48 hours. The substances used to cause hepatocyte death include CCl4, ActD, H2O2, doxorubicin, anti-Fas Ab/Actinomycin D, acetaminophen, EtOH, CdCl2, palmitate, stearate, cyclophosphamide, terfenadine, diclofenac, simvastatin, and adefovir. Primary hepatocytes were isolated using the method of Seglen P O (Experimental Cell Research 74 (1972), pp. 450-454). Briefly, hepatocytes were isolated according to the two-step collagenase perfusion method, and dead cells were removed by low speed (500 rpm) centrifugation for 10 min using percoll gradient (Kreamer B L et al., In Vitro Cellular & Developmental Biology 22 (1986), pp. 201-211). During this step, the viability of cells was maintained 90% or above. The cells were suspended in HepatoZYME media (Gibco BRL), and the number of cells was counted. 1.5×10^4 cells in 100 μl were placed into the collagen-coated 96-well plate (BD Biocoat), and adhered on the bottom for 3-4 hours.\n(§2) In order to assess the hepatocyte protective effect, the above adhered cells were pretreated with the Example compounds for 30 min. At this time, the concentration of the Example compounds was serially diluted by 2-fold or 3-fold over 5 steps starting from 30 μM, 10 μM or 1 μM depending on the experiments, and the final concentration of DMSO was adjusted to 0.2%. 30 min after the treatment by the compounds, the cells were treated by the substances deriving hepatocyte death or hepatotoxic drugs at the concentrations indicated in Table 1. After 24-48 hours, the viability of cells was determined to estimate the hepatocyte protective effects. The viability of cells was determined using the WST-1 (MK-400, […]) method by the absorbance at 440 nm. Hepatocyte protective effects of the Example compounds were represented by “EC50” which was calculated from measured values. “EC50” herein means the concentration of the compound at which 50% of maximum protective effect is observed in the experiment.", "units": {"EC50": "nM"}}
{"smiles": "NCC1CCN(C(=O)c2cc3cc(Cl)cc(N(CC4CC4)CC4CC4)c3[nH]2)C1", "note": "(centres unmarked) [Example 53, (3-Aminomethyl-pyrrolidin-1-yl)-[7-(bis-cyclopropylmethyl-amino)-5-chloro-1H-indol-2-yl]-methanone]", "EC50": 710}
{"smiles": "O=C(Nc1cccc(CN2CCOCC2)c1)c1cc2cc(Cl)cc(NC3CCNCC3)c2[nH]1", "note": "[Example 13, 5-Chloro-7-(piperidin-4-ylamino)-1H-indol-2-carboxylic acid (3-morpholin-4-ylmethyl-phenyl)-amide]", "EC50": 150}
{"smiles": "Cc1cc(NC2CCCC2)c2[nH]c(C(=O)N3CCNCC3)cc2c1", "note": "[Example 29, (7-Cyclopentylamino-5-methyl-1H-indol-2-yl)-piperazin-4-yl-methanone]", "EC50": 200}
{"smiles": "CCCCCNc1cc(Cl)cc2cc(C(=O)N3CCC(CN)C3)[nH]c12", "note": "(centres unmarked) [Example 50, (3-Aminomethyl-pyrrolidin-1-yl)-(5-chloro-7-pentylamino-1H-indol-2-yl]-methanone]", "EC50": 175}
{"smiles": "Cc1cc(NC2CCOCC2)c2[nH]c(C(=O)N3CC[C@H](C(=O)O)C3)cc2c1", "note": "[Example 38, (S)-1-[5-methyl-7-(tetrahydropyran-4-ylamino)-1H-indol-2-carbonyl]-pyrrolidin-3-carboxylic acid]", "EC50": 330}
{"smiles": "CC(C)CCNc1cc(Cl)cc2cc(C(=O)N3CCC(CN)C3)[nH]c12", "note": "(centres unmarked) [Example 46, (3-Aminomethyl-pyrrolidin-1-yl)-[5-chloro-7-(3-methyl-butylamino)-1H-indol-2-yl]-methanone]", "EC50": 290}
{"smiles": "CC(C)CCN(CCC(C)C)c1cc(Cl)cc2cc(C(=O)N3C[C@@H](CN4CCCC4)[C@H](c4ccc(F)cc4F)C3)[nH]c12", "note": "[Example 60, {7-[Bis-(3-methyl-butyl)-amino]-5-chloro-1H-indol-2-yl}-[(3R,4R)-3-(2,4-difluoro-phenyl)-4-pyrrolidin-1-ylmethyl-pyrrolidin-1-yl]-methanone]", "EC50": 250}
{"smiles": "N[C@H]1CCN(C(=O)c2cc3cc(Cl)cc(NC4CCCC4)c3[nH]2)C1", "note": "[Example 55, ((S)-3-amino-pyrrolidin-1-yl)-(5-chloro-7-cyclopentylamino-1H-indol-2-yl}-methanone]", "EC50": 430}
{"test_system": "primary hepatocytes isolated from rats", "test": "Hepatocyte protective effect against doxorubicin-induced hepatocyte toxicity (WST-1 viability)", "assay_type": "cell-based", "settings": "against doxorubicin treatment; primary rat hepatocytes pretreated with compound 30 min; viability by WST-1 after 24-48 hours; concentration giving 50% of maximum protective effect", "description": "as §1, §2", "units": {"EC50": "nM"}}
{"smiles": "NCC1CCN(C(=O)c2cc3cc(Cl)cc(NC4CCCCC4)c3[nH]2)C1", "note": "(centres unmarked) [Example 51]", "EC50": 330}
{"smiles": "NCC1CCCN(C(=O)c2cc3cc(Cl)cc(NC4CCCC4)c3[nH]2)C1", "note": "(centres unmarked) [Example 52]", "EC50": 210}
{"smiles": "NCC1CCN(C(=O)c2cc3cc(Cl)cc(NCCc4ccccc4)c3[nH]2)C1", "note": "(centres unmarked) [Example 49, (3-Aminomethyl-pyrrolidin-1-yl)-(5-chloro-7-penethylamino-1H-indol-2-yl]-methanone]", "EC50": 330}
